# PubChem BioAssay (NCI)
#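 In this assay, cells in 96-well plates receive the compound at five concentrations for 48 hours. Endpoints are linearly interpolated between the surrounding concentrations. GI50 is the concentration that inhibits growth by half. TGI: concentration producing complete growth inhibition.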
# Experiments:
# Assay in all cases: growth of human tumour cells (NCI), 48 h
# [1] = system: OVCAR-3 ovarian
# [2] = system: A549 NSCLC
# [3] = system: CCRF-CEM leukemia
# [4] = system: MDA-MB-231 breast
# [5] = system: MDA-MB-435
# [6] = system: HCC-2998 colon
# [7] = system: HT29 colon
# [8] = system: SF-268 CNS
# [9] = system: TK-10 renal
# [10] = system: OVCAR-5 ovarian
# [11] = system: CAKI-1 renal
# [12] = system: SW-620 colon
# [13] = system: BT-549 breast
# [14] = system: A498 renal
# [15] = system: UACC-257 melanoma
# [16] = system: OVCAR-8 ovarian
# [17] = system: RXF 393 renal
# [18] = system: DU-145 prostate
# [19] = system: MALME-3M melanoma
# [20] = system: HL-60(TB) leukemia
# [21] = system: SNB-75 CNS
# [22] = system: NCI-H522 lung
# [23] = system: HCT-15 colon
# [24] = system: T-47D breast
# [25] = system: KM12 colon
# [26] = system: NCI/ADR-RES ovarian
# [27] = system: UO-31 renal
# [28] = system: COLO 205 colon
# [29] = system: SF-539 CNS
# [30] = system: SN12C renal
# [31] = system: SK-MEL-28 melanoma
# [32] = system: NCI-H23 lung
# [33] = system: ACHN renal
# [34] = system: HOP-62 NSCLC
# [35] = system: MOLT-4 leukemia
# [36] = system: NCI-H226 lung
# [37] = system: SK-MEL-5 melanoma
# [38] = system: SK-OV-3 ovarian
# [39] = system: 786-0 renal
# [40] = system: IGROV1 ovarian
# [41] = system: SF-295 CNS
# [42] = system: RPMI-8226 leukemia
# [43] = system: U251 CNS
# [44] = system: UACC-62 melanoma
# [45] = system: HS 578T breast
# [46] = system: NCI-H460 lung
# [47] = system: SK-MEL-2 melanoma
# [48] = system: SR leukemia
# [49] = system: K-562 leukemia
# [50] = system: M14 melanoma
# [51] = system: PC-3 prostate
# [52] = system: SNB-19 CNS
# [53] = system: HCT-116 colon
# [54] = system: EKVX NSCLC
# [55] = system: MCF7 breast
# [56] = system: HOP-92 NSCLC
# [57] = system: LOX IMVI melanoma
structure (smiles),measurement,setting,value
Cc1cc(C)cc(NC2=C(Cl)C(=O)c3nc(C)ccc3C2=O)c1,GI50,[1],405 nM
same,TGI,[1],1470 nM
same,GI50,[2],4370 nM
same,TGI,[2],19100 nM
same,GI50,[3],2090 nM
same,TGI,[3],5780 nM
same,GI50,[4],1680 nM
same,TGI,[4],4130 nM
same,GI50,[5],1960 nM
same,TGI,[5],3860 nM
same,GI50,[6],3180 nM
same,TGI,[6],10500 nM
same,GI50,[7],3660 nM
same,TGI,[7],19200 nM
same,GI50,[8],3740 nM
same,TGI,[8],20700 nM
same,GI50,[9],2210 nM
same,TGI,[9],3730 nM
same,GI50,[10],1780 nM
same,TGI,[10],3690 nM
same,GI50,[11],1590 nM
same,TGI,[11],3180 nM
same,GI50,[12],2070 nM
same,TGI,[12],4650 nM
same,GI50,[13],1410 nM
same,TGI,[13],2830 nM
same,GI50,[14],14300 nM
same,TGI,[14],28100 nM
same,GI50,[15],1640 nM
same,TGI,[15],3120 nM
same,GI50,[16],2140 nM
same,TGI,[16],5920 nM
same,GI50,[17],1410 nM
same,TGI,[17],2740 nM
same,GI50,[18],1850 nM
same,TGI,[18],3550 nM
same,GI50,[19],2300 nM
same,TGI,[19],4420 nM
same,GI50,[20],1550 nM
same,TGI,[20],3850 nM
same,GI50,[21],2150 nM
same,TGI,[21],6480 nM
same,GI50,[22],2050 nM
same,TGI,[22],5290 nM
same,GI50,[23],1090 nM
same,TGI,[23],2640 nM
same,GI50,[24],1550 nM
same,TGI,[24],4260 nM
same,GI50,[25],5600 nM
same,TGI,[25],20700 nM
same,GI50,[26],2060 nM
same,TGI,[26],6790 nM
same,GI50,[27],1430 nM
same,TGI,[27],2870 nM
same,GI50,[28],2230 nM
same,TGI,[28],5010 nM
same,GI50,[29],1760 nM
same,TGI,[29],3250 nM
same,GI50,[30],2000 nM
same,TGI,[30],5790 nM
same,GI50,[31],1990 nM
same,TGI,[31],3940 nM
same,GI50,[32],1700 nM
same,TGI,[32],4590 nM
same,GI50,[33],1780 nM
same,TGI,[33],3400 nM
same,GI50,[34],4660 nM
same,TGI,[34],19700 nM
same,GI50,[35],1600 nM
same,TGI,[35],5610 nM
same,GI50,[36],1800 nM
same,TGI,[36],4580 nM
same,GI50,[37],1650 nM
same,TGI,[37],3080 nM
same,GI50,[38],14300 nM
same,TGI,[38],27700 nM
same,GI50,[39],1700 nM
same,TGI,[39],3420 nM
same,GI50,[40],1810 nM
same,TGI,[40],3950 nM
same,GI50,[41],4580 nM
same,TGI,[41],16300 nM
same,GI50,[42],1630 nM
same,TGI,[42],4400 nM
same,GI50,[43],2350 nM
same,TGI,[43],8090 nM
same,GI50,[44],2630 nM
same,TGI,[44],7420 nM
same,GI50,[45],2240 nM
same,TGI,[45],5810 nM
same,GI50,[46],4200 nM
same,TGI,[46],20100 nM
same,GI50,[47],2880 nM
same,TGI,[47],9570 nM
same,GI50,[48],1220 nM
same,TGI,[48],3960 nM
same,GI50,[49],712 nM
same,TGI,[49],4810 nM
same,GI50,[50],1630 nM
same,TGI,[50],3070 nM
same,GI50,[51],1730 nM
same,TGI,[51],10200 nM
same,GI50,[52],3410 nM
same,TGI,[52],24400 nM
CN1CCN(Cc2ccc(NC(=O)c3cncc(C#Cc4cnc5ccc(N6CCSCC6)nn45)c3)cc2C(F)(F)F)CC1,GI50,[1],322 nM
same,TGI,[1],1290 nM
same,GI50,[2],272 nM
same,TGI,[2],1580 nM
same,GI50,[3],303 nM
same,GI50,[4],74.2 nM
same,TGI,[4],572 nM
same,GI50,[5],197 nM
same,TGI,[5],1480 nM
same,GI50,[6],245 nM
same,TGI,[6],878 nM
same,GI50,[7],74.4 nM
same,TGI,[7],554 nM
same,GI50,[9],319 nM
same,TGI,[9],1080 nM
same,GI50,[10],282 nM
same,TGI,[10],1320 nM
same,GI50,[11],221 nM
same,TGI,[11],787 nM
same,GI50,[12],153 nM
same,TGI,[12],1090 nM
same,GI50,[13],354 nM
same,TGI,[13],1240 nM
same,GI50,[14],307 nM
same,TGI,[14],537 nM
same,GI50,[15],599 nM
same,TGI,[15],2340 nM
same,GI50,[17],141 nM
same,TGI,[17],295 nM
same,GI50,[53],112 nM
same,TGI,[53],1160 nM
same,GI50,[18],202 nM
same,TGI,[18],600 nM
same,GI50,[19],202 nM
same,TGI,[19],1070 nM
same,GI50,[20],78.2 nM
same,TGI,[20],520 nM
same,GI50,[21],256 nM
same,TGI,[21],832 nM
same,GI50,[22],132 nM
same,TGI,[22],340 nM
same,GI50,[23],172 nM
same,TGI,[23],564 nM
same,GI50,[24],1400 nM
same,TGI,[24],3890 nM
same,TGI,[25],340 nM
same,GI50,[27],280 nM
same,TGI,[27],855 nM
same,GI50,[28],153 nM
same,TGI,[28],429 nM
same,GI50,[29],93.6 nM
same,TGI,[29],275 nM
same,GI50,[30],112 nM
same,TGI,[30],702 nM
same,GI50,[31],498 nM
same,TGI,[31],1850 nM
same,GI50,[32],156 nM
same,TGI,[32],595 nM
same,GI50,[54],100 nM
same,TGI,[54],877 nM
same,GI50,[33],224 nM
same,TGI,[33],1200 nM
same,GI50,[34],338 nM
same,TGI,[34],1450 nM
same,GI50,[35],198 nM
same,TGI,[35],666 nM
same,GI50,[36],51.8 nM
same,TGI,[36],780 nM
same,GI50,[37],786 nM
same,TGI,[37],2080 nM
same,GI50,[38],656 nM
same,TGI,[38],2060 nM
same,GI50,[39],189 nM
same,TGI,[39],762 nM
same,GI50,[40],168 nM
same,TGI,[40],806 nM
same,GI50,[41],310 nM
same,TGI,[41],1600 nM
same,GI50,[55],45.9 nM
same,TGI,[55],598 nM
same,GI50,[42],333 nM
same,TGI,[42],2070 nM
same,GI50,[44],468 nM
same,TGI,[44],1930 nM
same,GI50,[56],41.8 nM
same,TGI,[56],240 nM
same,GI50,[57],152 nM
same,TGI,[57],535 nM
same,GI50,[46],208 nM
same,TGI,[46],532 nM
same,GI50,[47],260 nM
same,TGI,[47],745 nM
same,GI50,[48],208 nM
same,TGI,[48],712 nM
same,TGI,[49],753 nM
same,GI50,[50],156 nM
same,TGI,[50],760 nM
same,GI50,[51],327 nM
same,TGI,[51],1990 nM
same,GI50,[52],446 nM
same,TGI,[52],1350 nM
